Usually IC50 stands for the concentration at which inhibition is half-maximal.

Read-outs that look alike come from different tables or passages of the source. Some results are limits rather than exact numbers.

Consider 22 molecules from publication PMC6072243 (ACS Omega, 2018).

One experiment concerns the target JNK3 (Homo sapiens, UniProt P53779). The experiment is described as follows: JNK3 enzyme-linked immunosorbent assay. It is filed as biochemical.
A further experiment deals with p38α MAPK (Homo sapiens, UniProt Q16539). The experiment in a line: p38α MAPK enzyme-linked immunosorbent assay. It counts as biochemical. The settings on record: for inhibition at 10 µM: read-out: Percent inhibition of p38α MAPK at indicated concentration.
Sequence of p38α MAPK (Q16539 whole entry): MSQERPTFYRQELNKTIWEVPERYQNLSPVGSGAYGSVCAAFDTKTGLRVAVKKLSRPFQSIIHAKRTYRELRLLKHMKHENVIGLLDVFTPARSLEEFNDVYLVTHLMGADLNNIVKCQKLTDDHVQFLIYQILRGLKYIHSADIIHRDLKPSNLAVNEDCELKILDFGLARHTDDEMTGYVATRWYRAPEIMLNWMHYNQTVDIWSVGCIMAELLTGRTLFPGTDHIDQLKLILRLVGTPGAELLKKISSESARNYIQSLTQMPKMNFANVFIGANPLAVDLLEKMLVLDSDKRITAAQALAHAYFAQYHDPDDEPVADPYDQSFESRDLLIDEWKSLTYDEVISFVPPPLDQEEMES

Sequence of JNK3 (P53779 whole entry): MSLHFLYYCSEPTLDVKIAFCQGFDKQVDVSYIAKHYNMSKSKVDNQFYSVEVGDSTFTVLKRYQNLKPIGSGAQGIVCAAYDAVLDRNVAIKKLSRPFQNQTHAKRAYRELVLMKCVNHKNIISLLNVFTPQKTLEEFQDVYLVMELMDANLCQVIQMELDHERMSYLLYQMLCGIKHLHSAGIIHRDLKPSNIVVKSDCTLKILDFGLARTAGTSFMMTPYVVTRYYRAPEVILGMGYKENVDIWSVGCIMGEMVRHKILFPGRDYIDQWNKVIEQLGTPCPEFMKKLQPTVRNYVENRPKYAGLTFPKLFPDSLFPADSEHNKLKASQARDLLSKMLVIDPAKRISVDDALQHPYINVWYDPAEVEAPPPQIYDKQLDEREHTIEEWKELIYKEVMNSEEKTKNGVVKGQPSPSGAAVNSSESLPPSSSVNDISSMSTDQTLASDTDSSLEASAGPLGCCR

`c1ccc2cc(-c3nc[nH]c3-c3ccnc(Nc4ccc(N5CCOCC5)cc4)c3)ccc2c1` [Compound 18e, N-(4-Morpholinophenyl)-4-(4-(naphthalen-2-yl)-1H-imidazol-5-yl)pyridin-2-amine]: the IC50 against JNK3 is 31 ± 3 nM; at p38α MAPK it was 16 ± 3 nM.
On to `Cn1cc(-c2nc[nH]c2-c2ccnc(Nc3ccc(N4CCOCC4)cc3)c2)cn1` [Compound 18f, 4-(4-(1-Methyl-1H-pyrazol-4-yl)-1H-imidazol-5-yl)-N-(4-morpholinophenyl)pyridin-2-amine], for which the IC50 on JNK3 stood at 758 ± 49 nM; at p38α MAPK, 3260 nM.
Take `c1cc(-c2[nH]cnc2C2CCCCC2)cc(Nc2ccc(N3CCOCC3)cc2)n1` [Compound 18g, 4-(4-Cyclohexyl-1H-imidazol-5-yl)-N-(4-morpholinophenyl)pyridin-2-amine]: the half-maximal inhibitory concentration (IC50) on JNK3 amounted to 1720 nM; against p38α MAPK, 726 ± 21 nM. Moreover, the “fold higher activity for p38α MAPK than for JNK3” value at p38α MAPK (ratio of IC50 values) is recorded as 2 fold.
On to `c1cc(-c2[nH]cnc2C2CCCC2)cc(Nc2ccc(N3CCOCC3)cc2)n1` [Compound 18h, 4-(4-Cyclopentyl-1H-imidazol-5-yl)-N-(4-morpholinophenyl)pyridin-2-amine], for which the IC50 is 2190 nM on JNK3 (read-out: IC50 ± SD JNK3, ELISA, mean of three experiments (SP600125 n = 16)) and 1720 nM on p38α MAPK.
Regarding `c1cc(-c2[nH]cnc2C2CCC2)cc(Nc2ccc(N3CCOCC3)cc2)n1` [Compound 18i, 4-(4-Cyclobutyl-1H-imidazol-5-yl)-N-(4-morpholinophenyl)pyridin-2-amine], the half-inhibitory concentration (IC50) amounted to 1760 nM against JNK3 and 2260 nM against p38α MAPK.
The like results for `c1cc(-c2[nH]cnc2C2CC2)cc(Nc2ccc(N3CCOCC3)cc2)n1` [Compound 18j, 4-(4-Cyclopropyl-1H-imidazol-5-yl)-N-(4-morpholinophenyl)pyridin-2-amine] were, in that order, 1080 nM and 4020 nM.
On to `CC(C)(C)c1nc[nH]c1-c1ccnc(Nc2ccc(N3CCOCC3)cc2)c1` [Compound 18k, 4-(4-(tert-Butyl)-1H-imidazol-y-yl)-N-(4-morpholinophenyl)pyridin-2-amine], for which the IC50 against JNK3 and against p38α MAPK was > 10000 nM in each case. Besides, the values for the inhibition at 10 µM at JNK3 (read-out: Percent inhibition of JNK3 at indicated concentration) and on p38α MAPK were 32% and 41%, respectively.
`CC(C)c1nc[nH]c1-c1ccnc(Nc2ccc(N3CCOCC3)cc2)c1` [Compound 18l, 4-(4-Isopropyl-1H-imidazol-5-yl)-N-(4-morpholinophenyl)pyridin-2-amine] came in with an IC50 against JNK3 of 2830 nM. Moreover, on p38α MAPK, the IC50 is 10000 nM and the inhibition at 10 µM is 50%.
Take `Cc1nc[nH]c1-c1ccnc(Nc2ccc(N3CCOCC3)cc2)c1` [Compound 38, 4-(4-Methyl-1H-imidazol-5-yl)-N-(4-morpholinophenyl)pyridin-2-amine]: the half-maximal inhibitory concentration (IC50) against JNK3 is 833 ± 139 nM; against p38α MAPK, > 10000 nM. The inhibition at 10 µM at p38α MAPK was found to be 41%.
The like results for `CSc1ncc(-c2ccnc(Nc3ccc(N4CCOCC4)cc3)c2)[nH]1` [Compound 43, 4-(2-(Methylthio)-1H-imidazol-5-yl)-N-(4-morpholinophenyl)pyridin-2-amine] were, in that order, 562 ± 21 nM, > 10000 nM and 43%.
For `CCc1nc(SC)[nH]c1-c1ccnc(Nc2ccc(N3CCOCC3)cc2)c1` [Compound 45, 4-(4-Ethyl-2-(methylthio)-1H-imidazol-5-yl)-N-(4-morpholinophenyl)pyridin-2-amine] the same measures were 1100 nM, > 10000 nM and 38%.
The like results for `CSc1nc(C)c(-c2ccnc(NC(C)C(C)C)c2)[nH]1` (centres unmarked) [Compound 48a, 4-(4-Methyl-2-(methylthio)-1H-imidazol-5-yl)-N-(3-methylbutan-2-yl)pyridin-2-amine] were, in that order, 2590 nM, > 10000 nM and 34%.
`CSc1nc(C)c(-c2ccnc(NC(C)c3ccccc3)c2)[nH]1` (centres unmarked) [Compound 48b, 4-(4-Methyl-2-(methylthio)-1H-imidazol-5-yl)-N-(1-phenylethyl)pyridin-2-amine]: the half-inhibitory concentration (IC50) against JNK3 is 7610 nM; on p38α MAPK, 3460 nM.
On to `CSc1nc(C)c(-c2ccnc(NC3CCC3)c2)[nH]1` [Compound 48c, N-Cyclobutyl-4-(4-methyl-2-(methylthio)-1H-imidazol-5-yl)pyridin-2-amine], for which the IC50 at JNK3 is 3040 nM. Further, at p38α MAPK, the IC50 is > 10000 nM and the inhibition at 10 µM was 36%.
Regarding `CSc1nc(C)c(-c2ccnc(NC3CCCC3)c2)[nH]1` [Compound 48d, N-Cyclopentyl-4-(4-methyl-2-(methylthio)-1H-imidazol-5-yl)pyridin-2-amine], half-maximal inhibition at JNK3 (IC50) required 1570 nM. On p38α MAPK, the IC50 is > 10000 nM and the inhibition at 10 µM turned out to be 47%.
For `CSc1nc(C)c(-c2ccnc(NC3CCCCC3)c2)[nH]1` [Compound 48e, N-Cyclohexyl-4-(4-methyl-2-(methylthio)-1H-imidazol-5-yl)pyridin-2-amine] the same measures were 671 ± 74 nM, > 10000 nM and 31%.
The molecule `CSc1nc(C)c(-c2ccnc(N[C@H]3CC[C@H](O)CC3)c2)[nH]1` [Compound 48g, trans-4-((4-(4-Methyl-2-(methylthio)-1H-imidazol-5-yl)pyridin-2-yl)amino)cyclohexan-1-ol] came in with a concentration for half-maximal inhibition (IC50) on JNK3 of 457 ± 72 nM. On p38α MAPK, the IC50 was > 10000 nM and the inhibition at 10 µM was found to be 35%.
As for `CSc1nc(C)c(-c2ccnc(N[C@H]3CC[C@H](N)CC3)c2)[nH]1` [Compound 48h, trans-N1-(4-(4-Methyl-2-(methylthio)-1H-imidazol-5-yl)pyridin-2-yl)cyclohexane-1,4-diamine], on JNK3, half-maximal inhibition (IC50) required 941 ± 75 nM and the “fold drop in potency on JNK3 versus parent compound 44” value is given as 3 fold. At p38α MAPK, the half-maximal inhibitory concentration (IC50) was > 10000 nM and the inhibition at 10 µM was found to be 46%.
Regarding `CSc1nc(C)c(-c2ccnc(N[C@H]3CC[C@H](NC(C)=O)CC3)c2)[nH]1` [Compound 48i, N-(trans-4-((4-(4-Methyl-2-(methylthio)-1H-imidazol-5-yl)pyridin-2-yl)amino)cyclohexyl)acetamide], the 50% inhibitory concentration (IC50) is 819 ± 141 nM against JNK3 and > 10000 nM against p38α MAPK. Moreover, the inhibition at 10 µM on p38α MAPK is 37%.
`CSc1nc(C)c(-c2ccnc(N[C@H]3CC[C@H](NC(=O)C4CCCCC4)CC3)c2)[nH]1` [Compound 48k, N-(trans-4-((4-(4-Methyl-2-(methylthio)-1H-imidazol-5-yl)pyridin-2-yl)amino)cyclohexyl)cyclohexanecarboxamide] registered an IC50 on JNK3 of 2230 nM. Besides, at p38α MAPK, the concentration for half-maximal inhibition (IC50) was > 10000 nM and the inhibition at 10 µM came to 10%.
For `CSc1nc(C)c(-c2ccnc(Nc3ccc(N)cc3)c2)[nH]1` [Compound 48m, N1-(4-(4-Methyl-2-(methylthio)-1H-imidazol-5-yl)pyridin-2-yl)benzene-1,4-diamine] the same measures were 353 ± 58 nM, > 10000 nM and 38%.
For `CSc1nc(C)c(-c2ccnc(Nc3ccc(NC(C)=O)cc3)c2)[nH]1` [Compound 48n, N-(4-((4-(4-Methyl-2-(methylthio)-1H-imidazol-5-yl)pyridin-2-yl)amino)phenyl)acetamide] the same measures were 415 ± 40 nM, > 10000 nM and 32%.
